Laboratory results published in paper PMC9516332 (Frontiers in Oncology, 2022).
Where two headings read alike, the source gives them in different places.

Tests used:
Assay in all cases: Kinase panel profiling at 1 µmol/L (MSA or IMAP), percentage inhibition
Type in all cases: biochemical
[1] = molecular target: T1, panel of 255 wild-type kinases (Homo sapiens, UniProt P52333); conditions: read-out: %-inhibition at 1 µmol/L, JAK3
T1 sequence (P52333 1-1124): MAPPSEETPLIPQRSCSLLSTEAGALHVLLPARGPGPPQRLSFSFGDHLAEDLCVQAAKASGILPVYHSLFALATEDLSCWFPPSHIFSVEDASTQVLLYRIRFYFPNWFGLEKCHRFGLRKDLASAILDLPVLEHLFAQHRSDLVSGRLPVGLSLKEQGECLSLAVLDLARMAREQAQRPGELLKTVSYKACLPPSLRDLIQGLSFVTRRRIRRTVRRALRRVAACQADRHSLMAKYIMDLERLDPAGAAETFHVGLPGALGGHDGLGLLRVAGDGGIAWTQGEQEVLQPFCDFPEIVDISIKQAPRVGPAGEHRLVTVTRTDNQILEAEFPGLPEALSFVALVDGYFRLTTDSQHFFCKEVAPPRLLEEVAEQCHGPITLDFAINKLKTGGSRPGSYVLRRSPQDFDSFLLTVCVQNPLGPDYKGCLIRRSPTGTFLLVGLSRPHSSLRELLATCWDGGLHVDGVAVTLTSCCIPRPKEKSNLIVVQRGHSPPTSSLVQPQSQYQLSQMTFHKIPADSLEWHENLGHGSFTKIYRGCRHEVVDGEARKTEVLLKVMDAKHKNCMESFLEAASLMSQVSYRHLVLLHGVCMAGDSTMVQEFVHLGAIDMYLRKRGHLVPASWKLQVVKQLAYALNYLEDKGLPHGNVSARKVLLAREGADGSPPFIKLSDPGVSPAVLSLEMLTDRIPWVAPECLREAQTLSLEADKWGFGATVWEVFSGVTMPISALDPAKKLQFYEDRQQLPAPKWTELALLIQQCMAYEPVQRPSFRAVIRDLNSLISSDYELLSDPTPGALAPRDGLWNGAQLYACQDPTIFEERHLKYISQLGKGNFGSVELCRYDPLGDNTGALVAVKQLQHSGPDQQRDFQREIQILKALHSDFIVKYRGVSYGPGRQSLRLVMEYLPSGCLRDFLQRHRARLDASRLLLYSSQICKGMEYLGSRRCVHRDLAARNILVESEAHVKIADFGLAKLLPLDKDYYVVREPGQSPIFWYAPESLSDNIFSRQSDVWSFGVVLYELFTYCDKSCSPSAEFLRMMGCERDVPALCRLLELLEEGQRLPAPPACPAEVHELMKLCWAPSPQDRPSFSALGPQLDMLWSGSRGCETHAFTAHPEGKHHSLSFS

[2] = molecular target: T2, panel of 255 wild-type kinases (Homo sapiens, UniProt Q13976); conditions: read-out: %-inhibition at 1 µmol/L, PGK
T2 sequence (Q13976 1-671): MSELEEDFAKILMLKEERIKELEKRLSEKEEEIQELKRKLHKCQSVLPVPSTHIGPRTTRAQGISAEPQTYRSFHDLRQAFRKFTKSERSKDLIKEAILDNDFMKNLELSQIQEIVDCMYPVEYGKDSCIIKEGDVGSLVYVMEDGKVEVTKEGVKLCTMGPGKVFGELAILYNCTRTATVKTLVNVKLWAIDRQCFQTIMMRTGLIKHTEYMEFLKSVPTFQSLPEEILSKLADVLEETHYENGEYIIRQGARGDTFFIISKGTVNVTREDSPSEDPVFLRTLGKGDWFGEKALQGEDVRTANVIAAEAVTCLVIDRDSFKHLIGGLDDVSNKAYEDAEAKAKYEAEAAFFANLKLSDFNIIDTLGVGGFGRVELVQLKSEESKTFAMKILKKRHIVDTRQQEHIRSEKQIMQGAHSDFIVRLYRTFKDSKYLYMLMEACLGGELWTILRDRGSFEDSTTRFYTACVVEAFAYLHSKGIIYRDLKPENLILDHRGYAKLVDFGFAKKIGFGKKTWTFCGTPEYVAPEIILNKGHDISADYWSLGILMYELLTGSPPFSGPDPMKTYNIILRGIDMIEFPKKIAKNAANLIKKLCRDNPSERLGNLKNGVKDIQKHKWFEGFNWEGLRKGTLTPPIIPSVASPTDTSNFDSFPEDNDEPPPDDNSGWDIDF

[3] = molecular target: panel of 255 wild-type kinases (Homo sapiens, UniProt P31751); conditions: read-out: %-inhibition AKT2
[4] = molecular target: T3, panel of 255 wild-type kinases (Homo sapiens, UniProt Q12851); conditions: read-out: %-inhibition at 1 µmol/L, MAP4K2
T3 sequence (Q12851 1-820): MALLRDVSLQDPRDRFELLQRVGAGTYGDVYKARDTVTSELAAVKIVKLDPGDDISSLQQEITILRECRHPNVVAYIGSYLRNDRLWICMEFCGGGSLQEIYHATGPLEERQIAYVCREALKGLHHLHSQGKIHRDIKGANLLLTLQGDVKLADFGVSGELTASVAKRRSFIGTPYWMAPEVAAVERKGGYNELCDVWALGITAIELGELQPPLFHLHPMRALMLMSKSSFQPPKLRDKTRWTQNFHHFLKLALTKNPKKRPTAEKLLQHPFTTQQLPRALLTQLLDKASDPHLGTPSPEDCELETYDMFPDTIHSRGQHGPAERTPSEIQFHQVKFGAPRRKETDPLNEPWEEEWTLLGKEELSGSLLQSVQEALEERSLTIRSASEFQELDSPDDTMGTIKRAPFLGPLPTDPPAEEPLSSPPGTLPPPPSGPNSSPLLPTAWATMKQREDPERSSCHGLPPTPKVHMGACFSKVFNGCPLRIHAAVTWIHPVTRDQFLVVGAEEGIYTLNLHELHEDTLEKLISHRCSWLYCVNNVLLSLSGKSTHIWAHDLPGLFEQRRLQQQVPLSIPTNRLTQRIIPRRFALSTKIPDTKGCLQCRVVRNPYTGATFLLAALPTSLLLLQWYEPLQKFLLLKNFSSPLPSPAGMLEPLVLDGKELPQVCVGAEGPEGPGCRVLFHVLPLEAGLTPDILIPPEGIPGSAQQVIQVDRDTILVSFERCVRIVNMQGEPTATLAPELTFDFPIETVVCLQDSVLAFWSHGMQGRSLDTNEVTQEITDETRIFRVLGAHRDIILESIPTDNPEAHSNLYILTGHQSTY

[5] = molecular target: panel of 255 wild-type kinases (Homo sapiens, UniProt Q9P1W9); conditions: read-out: %-inhibition at 1 µmol/L, PIM2
[6] = molecular target: panel of 255 wild-type kinases (Homo sapiens, UniProt P06241); conditions: read-out: %-inhibition at 1 µmol/L, FYN [isoform a]
[7] = kinase JAK3, 1 µmol/L single concentration
[8] = kinase PGK, 1 µmol/L single concentration
[9] = AKT2 kinase assay, 1 µmol/L single concentration
[10] = kinase MAP4K2, 1 µmol/L single concentration
[11] = kinase PIM2, 1 µmol/L single concentration
[12] = kinase FYN [isoform a], 1 µmol/L single concentration

Structure (SMILES) | inhibition at 1 µM [1, 7] | inhibition at 1 µM [2, 8] | inhibition at 1 µM [3, 9] | inhibition at 1 µM [4, 10] | inhibition at 1 µM [5, 11] | inhibition at 1 µM [6, 12] | inhibition at 1 µM [1] | inhibition at 1 µM [2] | inhibition at 1 µM [3] | inhibition at 1 µM [4] | inhibition at 1 µM [5] | inhibition at 1 µM [6]
Cc1nc(NC(=O)N2CCC[C@H]2C(N)=O)sc1-c1ccnc(C(C)(C)C(F)(F)F)c1 [alpelisib] | 0.447% | -3% | -0.795% | 5.56% | -6.4% | 1.52% | – | – | – | – | – | –
Cn1cc(-c2cc3c(N4CCN(c5ncc([C@@](C)(N)c6ccc(F)cc6)cn5)CC4)ncnn3c2)cn1 [avapritinib] | 64% | -2.58% | -0.192% | 14% | -2.22% | 57% | – | – | – | – | – | –
Cn1cnc2c(F)c(Nc3ccc(Br)cc3F)c(C(=O)NOCCO)cc21 [binimetinib] | -0.365% | -3% | 0.0508% | -1.27% | -6.4% | 3.76% | – | – | – | – | – | –
CNC(=O)c1ccc(-c2cnc3ncc(Cc4ccc5ncccc5c4)n3n2)cc1F [capmatinib] | – | – | – | – | – | – | 3.32% | -4.5% | 1.54% | -0.216% | -4.65% | -2%
COc1cc2ncnc(Nc3ccc(F)c(Cl)c3)c2cc1NC(=O)/C=C/CN1CCCCC1 [dacomitinib] | 28% | 4% | -1.19% | -2.38% | -3% | 32% | – | – | – | – | – | –
C[C@H](Nc1ncnc2nc[nH]c12)c1cc2cccc(Cl)c2c(=O)n1-c1ccccc1 [duvelisib] | 3% | 1.63% | -0.908% | 2.36% | -6.49% | 0.67% | – | – | – | – | – | –
COC(=O)N[C@@H](C)CNc1nccc(-c2cn(C(C)C)nc2-c2cc(Cl)cc(NS(C)(=O)=O)c2F)n1 [encorafenib] | 2.28% | -1.28% | 2% | 4% | -1.43% | 6% | – | – | – | – | – | –
CN1CCN(c2ccc(C(=O)Nc3n[nH]c4ccc(Cc5cc(F)cc(F)c5)cc34)c(NC3CCOCC3)c2)CC1 [entrectinib] | 97% | – | -3.69% | 85% | -7.56% | 96% | – | – | – | – | – | –
CCc1nc(C(N)=O)c(Nc2ccc(N3CCC(N4CCN(C)CC4)CC3)c(OC)c2)nc1NC1CCOCC1 [gilteritinib] | 91% | 41% | -4.73% | 99% | -1.37% | 84% | – | – | – | – | – | –
CCN1CCN(c2ccc(Nc3cc(N(C)C(=O)Nc4c(Cl)c(OC)cc(OC)c4Cl)ncn3)cc2)CC1 [infigratinib] | 7% | -2% | -0.769% | 23% | -7% | 40% | – | – | – | – | – | –
O=C(Nc1cnn2ccc(N3CCC[C@@H]3c3cc(F)ccc3F)nc12)N1CC[C@H](O)C1 [larotrectinib] | 6% | -2.33% | -5.27% | -2% | -6.57% | 1.82% | – | – | – | – | – | –
C[C@H]1Oc2cc(cnc2N)-c2c(nn(C)c2C#N)CN(C)C(=O)c2ccc(F)cc21 [lorlatinib] | 6.62% | 0.684% | -2.31% | 20% | -3.36% | 15% | – | – | – | – | – | –
CCN1C(=O)N(c2c(F)c(OC)cc(OC)c2F)Cc2cnc3[nH]c(CN4CCOCC4)cc3c21 [pemigatinib] | 0.2% | -1.82% | -2.2% | 8% | -6% | 9% | – | – | – | – | – | –
FC(F)(F)c1ccc(CNc2ccc(Cc3c[nH]c4ncc(Cl)cc34)cn2)cn1 [pexidartinib] | 40% | 14% | -6% | 31% | -2.72% | -9% | – | – | – | – | – | –
CO[C@]1(C(=O)N[C@@H](C)c2ccc(-n3cc(F)cn3)nc2)CC[C@H](c2nc(C)cc(Nc3cc(C)[nH]n3)n2)CC1 [pralsetinib] | 96% | 13% | 0.305% | 3.5% | -4% | 82% | – | – | – | – | – | –
CCn1c(=O)c(-c2cc(NC(=O)Nc3ccccc3)c(F)cc2Br)cc2cnc(NC)cc21 [ripretinib] | 7% | -0.449% | -5% | 44% | -3% | 23% | – | – | – | – | – | –
COc1ccc(CN2C3CC2CN(c2ccc(-c4cc(OCC(C)(C)O)cn5ncc(C#N)c45)cn2)C3)cn1 [selpercatinib] | 27% | 0.302% | -1.76% | 4.23% | -6% | 24% | – | – | – | – | – | –
C=CC(=O)N1CCC([C@@H]2CCNc3c(C(N)=O)c(-c4ccc(Oc5ccccc5)cc4)nn32)CC1 [zanubrutinib] | – | -2.64% | -4% | -2.68% | -7% | – | 10% | – | – | – | – | –
